# Publication PMC6972728, “Anthranilamide-based Short Peptides Self-Assembled Hydrogels as Antibacterial Agents” (Scientific Reports, 2020)
# Square brackets hold non-standard residues; d marks the D form. Peptide text beside a SMILES is read from it. * marks the point of attachment. 2Abz = Nc1ccccc1C(=O)O; Bz = O=C(c1ccccc1)*
# What was measured:
# [1] = Temperature dependent CD spectroscopy (thermal denaturation); format: physicochemical; settings: temperature increased from 25 °C to 60 °C; diluted hydrogel
# Method: In addition, CD spectroscopy was also used as a tool to investigate gradual thermal denaturation of anthranilamide-based short peptides.
# The anthranilamide-based hydrogels were prepared at 0.8% (w/v) and were diluted 10 times before being transferred into a 0.5 mm path length cuvette. Meanwhile, for the concentration dependence, the hydrogel made from N-benzoyl 2 at 0.8% (w/v) was diluted to make up concentrations ranging from 0.058 mM – 0.470 mM before being transferred into a 0.5 mm path length cuvette.
# CD spectrum were obtained using a ChirascanPlus CD spectrometer (Applied Photophysics, UK) scanning wavelengths of 180–500 nm with a bandwidth of 1 nm, 0.6 s per point, and step of 1 nm[22]. The outcome of three experiments were then averaged and plotted into a single plot value. The high tension (HT) value of each experiment was maintained to be below 600 mV (Fig. S17).
# HEK293T cells = test: Contact cytotoxicity of hydrogels, Alamar Blue colorimetric assay; format: cell-based; settings: hydrogels at 0.25, 0.5 and 1% (w/v), cells seeded on hydrogel, 24 h, repeated at least three times
# Method: With this in mind, the cytotoxicity of lead candidates N-benzoyl 2, N-naphthoyl 3, and BA 9 (para) from the antibacterial studies were examined against HEK293T cells, as a robust mammalian cell model. As the antibacterial activity of the 2, 3 and 9 was evaluated in the gel phase, contact cytotoxicity of hydrogels at concentrations of 0.25, 0.5, and 1% (w/v) was examined.
# Similar to previously reported method, cytotoxicity measurement was performed using an Alamar Blue colorimetric assay on HEK293T cells. HEK293T cells were passaged using standard cell culture procedures. Cells were detached with trypsin and centrifuged (1000 rpm for 3 min). After supernatant was removed, the cells were re-suspended in Dulbecco’s Modified Eagle Medium (DMEM) at a concentration of 60,000 cells/mL. Cells were seeded onto hydrogels at a concentration of 6,000 cells/well. Hydrogels were prepared as described above and 100 µL cast into the wells of a 96 well plate in triplicate. After incubating overnight, 100 µL media was added to the set hydrogels and incubated overnight. The following day, excess media was aspirated and cells seeded atop the hydrogels as above. After incubation for 24 hours, 10 µL Alamar Blue was added to each well, followed by further incubation for another 4 hours. […] BioRad Benchmark plate reader was used to measure the absorbance at 570 nm and 596 nm. […]
# [2] = Hydrogel formation, critical gel concentration and gelation time by vial inversion test; format: physicochemical
# Excerpt: Several triggers such as physical stimuli, pH switch, solvent switch, or a combination of these, were employed to assess the self-assembly of compounds 1–11 in water. Initially, hydrogel formation of compounds 1–11, at 1% (w/v), was investigated using a combination of pH switch and temperature switch. The compounds were heated in dilute sodium hydroxide (NaOH) in order to deprotonate the carboxylic acid group at the C-terminus of the short peptides.
# Compared to a mineral acid, GdL promotes the formation of a homogenous hydrogel due to its slow hydrolysis and fast dissolution rate in water[39],[40].
# In addition, the effect of salt which can induce gelation in basic peptide solutions[41], due to high ionic was also investigated for peptides 1–11.
# In a final attempt to induce gelation in peptides 4, 7 and 11, a solvent switch method using dimethyl sulfoxide (DMSO), methanol, or ethanol as co-solvent was employed[42]–[47]. […] Given that these hydrogels were designed with antibacterial applications in mind, due to the potential toxicity concerns arising from the use of organic co-solvents, further characterisation of peptides 4, 7 and 11 was not carried out.
# The critical gel concentration (CGC) represents the minimum amount of the anthranilamide-based short peptide required to form a hydrogel. The CGC of anthranilamide-based short peptides were qualitatively assessed by varying the short peptide concentrations and conducting vial inversion test[48]–[50]. […] Here, gelation time represents the time required for these short peptides, at 1% (w/v), to form self-supporting hydrogels as assessed through the vial inversion test.
# To a pre-weighed compound in a glass vial, 1 M NaOH (2–8 molar equiv.) was added followed by addition of Mili-Q water. The suspension was then heated and vortexed vigorously for 15 minutes to completely dissolve the compound. In the case of N-acetyl 1, N-benzoyl 2, N-naphthoyl 3, fluoro 5 and methyl 6, these clear solutions were left to cool to room temperature for 1–30 minutes. GdL (2–3 equiv.) was added to a solution of compounds 7–11 in NaOH. […]
# S. aureus = settings: cited from earlier work
# Method: With a complete understanding of the hydrogel ultrastructure now in-hand, the antibacterial activity of N-acetyl 1, N-benzoyl 2 and N-naphthoyl 3 was assessed, in order to evaluate the effect of increased hydrophobicity on antibacterial activity. Further, the stiffest (BA 9) and softest (methyl 6) of the remaining gelators were tested to discern the relationship of hydrogel stiffness to antimicrobial activity. Staphylococcus aureus, the most common causative organism for skin and soft tissue infections, was chosen as the bacterial strain to assess the hydrogels antibacterial activity. Thes ...
# [3] = not given; remark: listed apart in the source
smiles,measurement,setting,value
O=C(Nc1ccccc1C(=O)N[C@@H](Cc1ccccc1)C(=O)N[C@@H](Cc1ccccc1)C(=O)O)c1ccccc1 [compound 2] ({Bz-2Abz}-Phe-Phe-OH),Gʹ (stiffness),,16.9 kPa
same,Thermal stability of ß-sheet secondary structure (CD),[1],no significant conformational changes
same,Cytotoxicity towards HEK cells,HEK293T cells,moderate cytotoxicity
O=C(N[C@@H](Cc1ccccc1)C(=O)N[C@@H](Cc1ccccc1)C(=O)O)c1ccccc1NS(=O)(=O)c1cccc2ccccc12 [compound 4],Hydrogel formation outcome,"[2]; 1% (w/v), heated in dilute NaOH, cooled to room temperature (pH switch and temperature switch), up to 48 hours",remained as clear solutions
same,Hydrogel formation outcome,[2]; 3 equivalents of GdL added to basic solution,white precipitate
same,Hydrogel formation outcome,"[2]; solvent switch, DMSO: water at 1% w/v",gels were observed only for the first 5 minutes
"[Na+].[OH-] [NaOH, sodium hydroxide]",MIC,S. aureus,7500 µg/mL
O=C(Nc1ccccc1C(=O)N[C@@H](Cc1ccccc1)C(=O)N[C@@H](Cc1ccccc1)C(=O)O)c1ccc2ccccc2c1 [compound 3],Gʹ (stiffness),,5.7 kPa
same,Cytotoxicity towards HEK cells,HEK293T cells,poor cell viability
CC(=O)Nc1ccccc1C(=O)N[C@@H](Cc1ccccc1)C(=O)N[C@@H](Cc1ccccc1)C(=O)O (Ac-[2Abz]-Phe-Phe-OH),amide I peak (disordered coil),[3],1650 cm⁻¹
